These results are taken from patent US10975056B2 (GlaxoSmithKline Intellectual Property Development Limited, priority 2016, dated 2021).

SMILES strings stand for the structures. Where a name gives a salt, the structure may show the parent alone. Read-outs that look alike come from different tables or passages of the source.

One assay has as its target human full length DNMT1 (Homo sapiens (Human), UniProt P26358). The assay can be described thus: DNMT1 breaklight assay. Format: biochemical. The settings on record: repeated experimental runs, read-out: average IC50 against DNMT1. As to the method:
DNMT1 breaklight in vitro assays were conducted in a total volume of 50 μl in a standard 384 well format, using black non-binding surface microplates (Corning 3575). Five μl of human full length DNMT1 (produced internally), used at a final concentration of 40 nM, was added to 5 μl of substrate mixture containing final concentrations of 125 nM hemi methylated oligonucleotide (synthesized at ATD Bio; 5′-FAM-[…]5[…]5G5TAGAT-3′ where 5=methyl deoxycitidine) and 2 μM ultrapure SAM (Cisbio #62SAHZLD). Negative control wells used 5 μl of DNMT1 and 5 μl of oligonucleotide but 0 μM SAM. All reagents were made up in 1× assay buffer (20 mM Tris pH 6.8, 25 mM NaCl, 0.5 mM MgCl2, 0.01% Triton X100 and 1 mM DTT). The reaction was incubated at 26° C. for 45 min and then stopped with the addition of 40 μl detection reagent. Detection reagent, made up in 1× Gla assay buffer (20 mM Tris pH 8.0, 80 mM NaCl, 0.75 mM MgCl2, 0.01% Triton X100 and 1 mM DTT) has a final concentration of 100 μM SAH (Sigma #A9384) and 0.0008 units/μl Gla1 restriction endonuclease (Sibenzyme #E494). Following addition of the detection reagent the plate was incubated in the dark at room temperature for 5 hr. Fluorescence intensity was then measured on the PHERAstar FS (BMG Labtech) at Ex 485 nm and Em 520 nm, with a gain of 400 and an integration time of 100 ms.

Another assay relates to MV-4-11 AML cells. As to the kind of experiment: MV-4-11 cell proliferation assay (CellTiter-Glo, 6 days). The class given is cell-based. The settings on record: Homo sapiens, MV4-11, 144 h; 6 days treatment; binning as pXC50; read-out: MV4-11 Anti-proliferative activity (EC50 category). As to the method: MV-4-11 Anti-Proliferative Activity (pEC50 Category)
Cell proliferation assay. Optimal cell seeding density was determined empirically for MV-4-11 AML cells by examining the growth of a wide range of seeding densities in a 384-well format to identify conditions that permitted maximal and continued proliferation for 6 days. MV-4-11 cells were plated in duplicate plates 24 hours before treatment with a 20-point two-fold dilution series of compound or 0.15% DMSO. Plates were incubated for 6 days at 37° C. in 5% CO2. Cells were then lysed with CellTiter-Glo (CTG) (Promega) and chemiluminescent signal was detected with an appropriate microplate reader. In addition, an untreated plate of cells was harvested at the time of compound addition (T0) to quantify the initial cell density. CTG values obtained after 6 days of treatment were expressed as a percent of the T0 value and plotted against compound concentration. Data were fit with a four parameter equation to generate a concentration response curve from which growth IC50 values were calculated.
(Cellular ATP, detected with luciferase, serves as a proxy for viable cell number.)

A further assay addresses human DNMT3a/3l (Homo sapiens (Human), UniProt Q9Y6K1). As to the kind of experiment: DNMT3a/3l breaklight assay. Format: biochemical. The protocol:
DNMT3a/3l Breakliqht Assay
DNMT3a/3l breaklight in vitro assays were conducted in a total volume of 50 μl in a standard 384 well format, using black non-binding surface microplates (Corning #3575). […] Negative control wells used 5 μl of DNMT3a/3l and 5 μl of oligonucleotide but also included 200 μM SAH. All reagents were made up in 1× assay buffer (20 mM Tris pH 7.4, 100 mM NaCl, 1.5 mM EDTA, 0.1 mM MgCl2, 1 mM CHAPS and 1 mM DTT). The reaction was incubated at 37° C. for 90 min and then stopped with the addition of 40 μl detection reagent. Detection reagent, made up in 1× Gla assay buffer (20 mM Tris pH 8.0, 80 mM NaCl, 0.75 mM MgCl2, 0.01% Triton X100 and 1 mM DTT) has a final concentration of 200 μM SAH (Sigma #A9384) and 0.0008 units/μl Gla1 restriction endonuclease (Sibenzyme #E494). Following addition of the detection reagent the plate was incubated in the dark at room temperature for 5 hr. Fluorescence intensity was then measured on the PHERAstar FS (BMG Labtech) at Ex 485 nm and Em 520 nm, with a gain of 400 and an integration time of 100 ms.

For another assay, the target named is DNMT3B (Homo sapiens (Human), UniProt Q9UBC3). As to the kind of experiment: DNMT3B breaklight assay. Format: biochemical.
In assay [1] the test system is sickle cell disease (SCD) model transgenic mice. As to the kind of experiment: Fetal hemoglobin in sickle cell disease transgenic mouse model, % HbF protein by HPLC. The class given is in vivo. The settings on record: oral, 10 or 50 mg/kg BID daily, measured by HPLC. An excerpt:
FIG. 2A depicts the effect of Compound A on fetal hemoglobin in the transgenic mouse model.

Assay [2] concerns human hemoglobin transgenic mice (sickle cell disease model). The assay can be described thus: Sickle cell mouse model, fetal hemoglobin induction in vivo. The settings on record: for increase in % F RBCs / increase in % F reticulocytes: 2 week dose period; for increase in % HbF protein: two weeks. An excerpt:
A mouse model of sickle cell disease was utilized to measure the in vivo efficacy of Compound A previously shown to have potent in vitro activity in human primary erythroid progenitor cells derived from normal bone marrow or sickle cell patient peripheral blood mononuclear cells.
The in vivo activity of Compound A was investigated in the sickle cell mouse model in accordance with US/UK standards of animal care.
Male and female human hemoglobin transgenic mice [B6; 129-Hbatm1(HBA)Tow/Hbbtm2(HBG1,HBB*)Tow/J Mice (Jackson Laboratories, Me.)] were approximately 6-8 weeks old and weighed approximately 15-25 grams at the initiation of the studies. To the extent possible, groups were gender balanced and comprised of 6 mice.
Mice were administered vehicle (10% DMA/90% PEG400), 10 or 50 mg/kg Compound A twice daily (BID) by oral route five days per week, over a two week period.
At the end of the dosing period, mice were euthanized by CO2 asphyxiation and blood from the vena cava was collected into EDTA tubes for fetal hemoglobin analysis. % HbF protein was determined by high performance liquid chromatography and % F cells (HbF expressing erythrocytes) were determined by flow cytometry. The mouse monoclonal anti-human HbF antibody conjugated to APC (Life Technologies, Grand Island, N.Y.) was used to identify HbF expressing erythroid cells. The nuclear dye, syto16, (Life Technologies) was used to separate the reticulocyte and RBC populations. Protein and cellular data were collected on the Bio-Rad D10 analyzer (Bio-Rad, Benicia, Calif.) and the FACs Canto I (BD BioSciences, San Jose, Calif.) respectively. Flow cytometry data was analyzed with Flowjo v7 software (Treestar, Inc Ashland. Oreg.). Group mean and standard deviation were determined for the control and treatment groups. Data were graphed and analyzed using 1-Way ANOVA with Tukey post test (Graphpad Prism v5 [La Jolla, Calif.]).

The mark [3] stands for this setting: read-out: DNMT3A Breaklight IC50.
The mark [4] stands for this setting: repeated experimental runs, read-out: average IC50, DNMT3A breaklight assay.
Setting [5] is: read-out: DNMT3B Breaklight IC50.
Where [6] appears, read: repeated experimental runs, read-out: average IC50, DNMT3B breaklight assay.

Sequence of human DNMT3a/3l (Q9Y6K1 whole entry, looked up): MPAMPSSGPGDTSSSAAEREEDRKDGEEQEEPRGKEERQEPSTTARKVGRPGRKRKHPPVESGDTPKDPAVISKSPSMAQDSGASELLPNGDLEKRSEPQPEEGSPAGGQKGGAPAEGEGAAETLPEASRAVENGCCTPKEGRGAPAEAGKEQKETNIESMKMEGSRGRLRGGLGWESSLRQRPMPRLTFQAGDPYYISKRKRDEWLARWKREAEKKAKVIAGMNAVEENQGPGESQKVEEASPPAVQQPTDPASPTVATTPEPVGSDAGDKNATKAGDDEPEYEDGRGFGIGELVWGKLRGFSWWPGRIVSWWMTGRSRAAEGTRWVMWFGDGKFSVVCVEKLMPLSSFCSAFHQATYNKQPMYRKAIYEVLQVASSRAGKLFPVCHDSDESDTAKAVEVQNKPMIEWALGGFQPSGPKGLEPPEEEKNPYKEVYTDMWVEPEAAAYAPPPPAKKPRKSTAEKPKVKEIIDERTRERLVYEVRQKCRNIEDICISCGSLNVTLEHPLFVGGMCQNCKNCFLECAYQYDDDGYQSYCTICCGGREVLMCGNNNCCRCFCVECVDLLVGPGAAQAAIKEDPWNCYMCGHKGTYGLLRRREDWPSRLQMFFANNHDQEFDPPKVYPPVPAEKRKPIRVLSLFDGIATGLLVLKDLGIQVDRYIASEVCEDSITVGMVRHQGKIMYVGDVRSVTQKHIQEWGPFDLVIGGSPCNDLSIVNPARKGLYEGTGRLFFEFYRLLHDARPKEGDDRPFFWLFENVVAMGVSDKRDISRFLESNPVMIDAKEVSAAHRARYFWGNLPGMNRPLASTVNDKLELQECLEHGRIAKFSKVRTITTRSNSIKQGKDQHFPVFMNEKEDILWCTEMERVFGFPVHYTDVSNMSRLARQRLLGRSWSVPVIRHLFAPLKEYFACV
Sequence of human DNMT3a/3l (Q9UJW3 whole entry partner, looked up): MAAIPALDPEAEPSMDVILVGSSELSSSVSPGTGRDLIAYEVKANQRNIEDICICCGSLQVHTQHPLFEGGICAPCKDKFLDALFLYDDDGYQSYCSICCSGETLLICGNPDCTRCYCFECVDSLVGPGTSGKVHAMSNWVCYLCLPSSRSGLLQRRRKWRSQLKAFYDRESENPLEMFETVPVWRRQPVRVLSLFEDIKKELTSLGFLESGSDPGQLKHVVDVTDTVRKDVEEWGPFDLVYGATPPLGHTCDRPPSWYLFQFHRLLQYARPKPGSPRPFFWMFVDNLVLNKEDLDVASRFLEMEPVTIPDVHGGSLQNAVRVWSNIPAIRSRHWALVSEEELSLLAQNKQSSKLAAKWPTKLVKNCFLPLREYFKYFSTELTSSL
Sequence of human full length DNMT1 (P26358 whole entry): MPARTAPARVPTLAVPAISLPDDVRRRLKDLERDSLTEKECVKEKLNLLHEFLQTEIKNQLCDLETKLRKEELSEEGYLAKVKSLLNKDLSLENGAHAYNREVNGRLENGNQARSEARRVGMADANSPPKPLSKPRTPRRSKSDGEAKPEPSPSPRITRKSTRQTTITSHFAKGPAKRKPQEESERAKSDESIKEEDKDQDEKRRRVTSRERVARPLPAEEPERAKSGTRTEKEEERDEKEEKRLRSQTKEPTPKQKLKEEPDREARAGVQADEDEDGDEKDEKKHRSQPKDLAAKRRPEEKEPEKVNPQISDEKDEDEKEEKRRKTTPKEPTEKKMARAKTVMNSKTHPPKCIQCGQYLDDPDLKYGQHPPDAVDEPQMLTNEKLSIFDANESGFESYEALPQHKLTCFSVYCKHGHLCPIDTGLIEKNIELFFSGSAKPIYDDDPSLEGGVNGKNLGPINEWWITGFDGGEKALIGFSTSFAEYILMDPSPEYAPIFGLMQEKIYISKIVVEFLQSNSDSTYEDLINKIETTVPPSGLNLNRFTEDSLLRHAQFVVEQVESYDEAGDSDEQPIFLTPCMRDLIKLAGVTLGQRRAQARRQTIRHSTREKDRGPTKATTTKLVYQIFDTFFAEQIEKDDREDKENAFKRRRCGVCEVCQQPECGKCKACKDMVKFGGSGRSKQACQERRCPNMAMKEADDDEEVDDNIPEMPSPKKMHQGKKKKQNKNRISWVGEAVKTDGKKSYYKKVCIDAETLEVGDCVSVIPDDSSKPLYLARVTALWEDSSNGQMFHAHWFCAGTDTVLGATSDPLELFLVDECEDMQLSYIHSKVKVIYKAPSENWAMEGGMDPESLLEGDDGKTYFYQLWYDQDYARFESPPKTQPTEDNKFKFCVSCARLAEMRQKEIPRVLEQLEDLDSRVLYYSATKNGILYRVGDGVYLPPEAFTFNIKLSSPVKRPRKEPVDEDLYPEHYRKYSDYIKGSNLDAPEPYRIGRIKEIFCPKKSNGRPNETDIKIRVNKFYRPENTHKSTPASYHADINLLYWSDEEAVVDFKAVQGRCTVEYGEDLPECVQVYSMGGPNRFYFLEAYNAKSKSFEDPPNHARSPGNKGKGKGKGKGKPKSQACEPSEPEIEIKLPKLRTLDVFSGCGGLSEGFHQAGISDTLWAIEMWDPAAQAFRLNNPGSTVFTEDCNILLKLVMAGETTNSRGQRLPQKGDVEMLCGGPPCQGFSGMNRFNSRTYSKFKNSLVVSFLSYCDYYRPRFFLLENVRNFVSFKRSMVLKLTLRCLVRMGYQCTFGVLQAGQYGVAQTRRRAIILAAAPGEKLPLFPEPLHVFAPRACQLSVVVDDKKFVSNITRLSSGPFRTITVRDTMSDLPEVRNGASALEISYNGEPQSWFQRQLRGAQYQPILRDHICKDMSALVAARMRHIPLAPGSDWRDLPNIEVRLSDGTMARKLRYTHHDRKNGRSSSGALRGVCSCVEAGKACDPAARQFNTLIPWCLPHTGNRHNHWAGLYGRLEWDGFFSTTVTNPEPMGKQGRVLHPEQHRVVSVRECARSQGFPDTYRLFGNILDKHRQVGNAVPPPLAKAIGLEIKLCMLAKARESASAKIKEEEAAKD

On to `CCc1c(C#N)c(SC(C(N)=O)c2ccccc2)nc(N2CCC23CCNCC3)c1C#N` (stereo not shown) [Example 38, 2-((3,5-Dicyano-4-ethyl-6-(1,7-diazaspiro[3.5]nonan-1-yl)pyridin-2-yl)thio)-2-phenylacetamide trifluoroacetate], for which, at human full length DNMT1, the IC50 was over 0.75 µM. Besides, the EC50 with MV-4-11 AML cells is 1 to 31.6 µM.

For `CCc1c(C#N)c(SC(C(N)=O)c2ccccc2)nc(N2CCNC(=O)CC2)c1C#N` (stereo not shown) [Example 8, 2-{[3,5-dicyano-4-ethyl-6-(5-oxo-1,4-diazepan-1-yl)pyridin-2-yl]sulfanyl}-2-phenylacetamide], the IC50 on human full length DNMT1 is over 0.75 µM; at human DNMT3a/3l (setting [3]) it was over 500 µM; on human DNMT3a/3l (setting [4]) it was over 500 µM; on DNMT3B (setting [5]), over 500 µM; at DNMT3B (setting [6]), over 500 µM. The EC50 in the assay on MV-4-11 AML cells fell in the range of 1 to 31.6 µM.

Turning to `CC(Sc1nc(N2CCCNCC2)c(C#N)c(C2CC2)c1C#N)C(N)=O` (stereo not shown) [Example 46, 2-((3,5-dicyano-4-cyclopropyl-6-(1,4-diazepan-1-yl)pyridin-2-yl)thio)propanamide], the IC50 on human DNMT3a/3l (setting [3]) and at DNMT3B (setting [5]) was over 500 µM in each case. Further, the EC50 with MV-4-11 AML cells was in the range of 1 to 31.6 µM.

Turning to `CN1CCN(C2CCN(c3nc(SC(C(N)=O)c4ccccc4)c(C#N)c(C4CC4)c3C#N)CC2)CC1` (stereo not shown) [Example 40, 2-((3,5-Dicyano-4-cyclopropyl-6-(4-(4-methylpiperazin-1-yl)piperidin-1-yl)pyridin-2-yl)thio)-2-phenylacetamide], at human full length DNMT1, the IC50 is at most 0.5 µM. Moreover, the EC50 in the assay with MV-4-11 AML cells was in the range of 0.316 to 1 µM.

`CCc1c(C#N)c(SC(C(N)=O)c2ccccc2)nc(N2CCC(O)CC2)c1C#N` (stereo not shown) [Example 48, 2-((3,5-Dicyano-4-ethyl-6-(4-hydroxypiperidin-1-yl)pyridin-2-yl)thio)-2-phenylacetamide]: the results for the IC50 at human full length DNMT1, at human DNMT3a/3l (setting [3]) and at DNMT3B (setting [5]) were 0.89 µM, over 500 µM and over 500 µM, respectively.

For `CCc1c(C#N)c(SC(C(N)=O)c2ccccc2)nc(N2CCN(CC)CC2)c1C#N` (stereo not shown) [Example 35, 2-((3,5-dicyano-4-ethyl-6-(4-ethylpiperazin-1-yl)pyridin-2-yl)thio)-2-phenylacetamide], the IC50 was over 0.75 µM on human full length DNMT1; over 500 µM at human DNMT3a/3l (setting [3]); over 500 µM at human DNMT3a/3l (setting [4]); over 500 µM on DNMT3B (setting [5]); over 500 µM at DNMT3B (setting [6]).

For the molecule `CCc1c(C#N)c(SC(C(N)=O)c2ccccc2)nc(N2CCOCC2)c1C#N` (stereo not shown) [Example 57, 2-((3,5-Dicyano-4-ethyl-6-morpholinopyridin-2-yl)thio)-2-phenylacetamide], the IC50 on human DNMT3a/3l (setting [3]) and at DNMT3B (setting [5]) was over 500 µM throughout. For the same molecule, in the assay with MV-4-11 AML cells, the EC50 lay within 0.316 to 1 µM.

Take `N#Cc1c(SC(C(N)=O)c2ccncc2)nc(N2CCOCC2)c(C#N)c1C1CC1` (stereo not shown) [Example 9, 2-((3,5-dicyano-4-cyclopropyl-6-morpholinopyridin-2-yl)thio)-2-(pyridin-4-yl)acetamide]: the IC50 at human full length DNMT1 is over 0.75 µM; at human DNMT3a/3l (setting [3]), over 500 µM; on human DNMT3a/3l (setting [4]), over 500 µM; at DNMT3B (setting [5]), over 500 µM; on DNMT3B (setting [6]), over 500 µM.

On to `CCc1c(C#N)c(SC(C(N)=O)c2ccccc2)nc(N(C)C)c1C#N` (stereo not shown) [Compound A, 2-{[3,5-dicyano-6-(dimethylamino)-4-ethylpyridin-2-yl]sulfanyl}-2-phenylacetamide], for which the “% HbF protein” value in assay [1] is “dose dependent increases”. In addition, in assay [2] (10 mg/kg BID oral, p<0.001), the “increase in % F RBCs” value came out at 6 fold and the “increase in % F reticulocytes” value worked out at 4 fold. Further, the “increase in % HbF protein” value in assay [2] (10 mg/kg BID oral, p<0.05) stood at 5.4 fold. Further, in assay [2] (50 mg/kg BID oral, p<0.001), the “increase in % F RBCs” value is 8 fold, the “increase in % F reticulocytes” value was determined as 9 fold and the “increase in % HbF protein” value came out at 10.3 fold.

As to `N#Cc1c(SC(C(N)=O)c2ccccc2)nc(N2CCOC(CO)C2)c(C#N)c1C1CC1` (stereo not shown) [Example 63, 2-((3,5-Dicyano-4-cyclopropyl-6-(2-(hydroxymethyl)morpholino)pyridin-2-yl)thio)-2-phenylacetamide], the 50% inhibitory concentration (IC50) on human full length DNMT1 is over 0.75 µM. For the same molecule, the EC50 with MV-4-11 AML cells lay in the range of 1 to 31.6 µM.

Take `CCc1c(C#N)c(SC(C(N)=O)c2ccccc2)nc(N2CCNCC2)c1C#N` (stereo not shown) [Example 55, 2-((3,5-Dicyano-4-ethyl-6-(piperazin-1-yl)pyridin-2-yl)thio)-2-phenylacetamide]: the IC50 at human DNMT3a/3l (setting [3]) was over 500 µM; on DNMT3B (setting [5]) it was 272 µM. Further, in the assay with MV-4-11 AML cells, the EC50 fell in the range of 1 to 31.6 µM.

`CCc1c(C#N)c(N[C@@H](C(N)=O)c2ccccc2)nc(N2CCCNCC2)c1C#N` [Example 41, (R)-2-((3,5-dicyano-6-(1,4-diazepan-1-yl)-4-ethylpyridin-2-yl)amino)-2-phenylacetamide]: the IC50 at human full length DNMT1 was over 0.75 µM; at human DNMT3a/3l (setting [3]), over 500 µM; at human DNMT3a/3l (setting [4]), over 500 µM; at DNMT3B (setting [5]), over 500 µM; at DNMT3B (setting [6]), over 500 µM.

With `CCc1c(C#N)c(SC(C(N)=O)c2ccccc2)nc(N2CCCN(C)CC2)c1C#N` (stereo not shown) [Example 56, 2-((3,5-Dicyano-4-ethyl-6-(4-methyl-1,4-diazepan-1-yl)pyridin-2-yl)thio)-2-phenylacetamide], the IC50 is at most 0.5 µM on human full length DNMT1; over 500 µM on human DNMT3a/3l (setting [3]); over 500 µM on human DNMT3a/3l (setting [4]); over 500 µM on DNMT3B (setting [5]); over 500 µM on DNMT3B (setting [6]). In addition, the EC50 with MV-4-11 AML cells lay within 1 to 31.6 µM.

`CN1CCN(CC2CCN(c3nc(SC(C(N)=O)c4ccccc4)c(C#N)c(C4CC4)c3C#N)CC2)CC1` (stereo not shown) [Example 125, 2-((3,5-Dicyano-4-cyclopropyl-6-(4-((4-methylpiperazin-1-yl)methyl)piperidin-1-yl)pyridin-2-yl)thio-2-phenylacetamide trifluoroacetate]: the IC50 was 322 µM on human DNMT3a/3l (setting [3]) and 75 µM at DNMT3B (setting [5]). In addition, in the assay on MV-4-11 AML cells, the EC50 lay in the range of 0.316 to 1 µM.

Broadly, the IC50 is the concentration at which inhibition is half-maximal. As usually defined, the EC50 is the concentration that produces a half-maximal response.
